“And” between values parts separate entries of the source, which are not always exact repeats. Identical values can stand only once.
How the values were obtained:
[1] = system: mTOR lysosomal localization; test: Co-localization of mTOR with LAMP2, confocal microscopy; type: cell-based, human
[2] = system: AMPK; test: AMPK and ACC1 phosphorylation immunoblot; type: cell-based, human; details: relative to DMSO
Experimental: (§1) For standard SDS–PAGE and immunoblotting experiments, cells from a well of a 12-well plate were lysed in 250 μl of ice-cold Triton lysis buffer (50 mM Tris pH 7.5, 1% Triton X-100, 150 mM NaCl, 50 mM NaF, 2 mM Na-vanadate and 0.011 g ml^−1 β-glycerophosphate) supplemented with 1×PhosSTOP phosphatase inhibitors (cat. no. 4906837001, Roche) and 1×cOmplete protease inhibitors (cat. no. 11836153001, Roche) for 10 min on ice. The samples were clarified by centrifugation (20,000g, 15 min, 4 °C) and the supernatants were boiled in 1×SDS sample buffer (5×SDS sample buffer: 350 mM Tris–HCl pH 6.8, 30% glycerol, 600 mM DTT, 12.8% SDS and 0.12% bromophenol blue). The band intensities were quantified using the ImageJ software.
(§2) Data in graphs are shown as the mean ± s.e.m. *P < 0.05, **P < 0.005. Source numerical data and unprocessed blots are provided. Source data

[3] = system: mTORC1; test: mTORC1 activity in U2OS cells, immunoblot; type: cell-based, human; details: Fasnall 25 μM 30 min; cerulenin 50 μM 2 or 4 h
[4] = system: mTORC1; test: mTORC1 activity in HEK293FT cells (WT and knockout lines), phosphorylation of S6K, 4E-BP1, Grb10, TFEB by immunoblot; type: cell-based, human; details: for p-S6K(T389)/S6K: Replicates 1-3, DMSO = 1 (ED Fig. 8h)
Experimental: Data represent the median fluorescence intensity of OPP Alexa Fluor 488; n = 6 biological replicates from two independent experiments. b,c,e,g,i,k,l, Data are the mean ± s.e.m. *P < 0.05, **P < 0.005, ***P < 0.0005. […] Source numerical data and unprocessed blots are provided. Source data
(§3) Amino-acid-starvation experiments were carried out as described before[42],[43]. […] For the lipid depletion experiments, cells were cultured in medium containing 10% charcoal-stripped FBS (A3382101, Thermo Fisher Scientific), instead of full FBS, for 24 h before treatments with FASN inhibitors were performed. For FA supplementation, each FA was first conjugated to 10% FA-free BSA (fraction V; cat. no. 10735086001, Roche) for 1 h at 50 °C in a 50:50 volumetric ratio. The BSA-conjugated C16:0, C16:1, C18:1 and C18:2 FAs (100 μM) were then added to the media both 16 h previous to and at the start of the treatment with FASN inhibitors.
as §1

[5] = system: mTORC2; test: mTORC2 activity in HEK293FT cells, p-AKT^S473/AKT immunoblot; type: cell-based, human
Experimental: Phosphorylation of Ypk1 was used as the TORC2 readout. Phosphorylation of Snf1 was used as the AMPK activation readout. Total Snf1 was detected with an antibody to a histidine (His) stretch in Snf1. […] Source numerical data and unprocessed blots are provided. Source data
as §3, §1

[6] = system: mTORC1; test: mTORC1 activity in HEK293T cells (WT, AMPKα1/2 KO, DEPDC5 and RagA/B triple KO), p-S6K^T389/S6K immunoblot; type: cell-based, human
Experimental: Source numerical data and unprocessed blots are provided. Source data
as §1
Data in graphs are shown as the mean ± s.e.m. *P < 0.05, **P < 0.005, ***P < 0.0005. Source numerical data and unprocessed blots are provided. Source data

[7] = system: mTORC1; test: mTORC1 activity in mouse embryonic fibroblasts (MEFs), p-S6K^T389/S6K immunoblot; type: cell-based
[8] = system: ERK1/2; test: ERK1/2 phosphorylation immunoblot; type: cell-based, human; details: ED Fig. 5k; relative to DMSO
Experimental: as §1, §2

[9] = Fasnall 25 μM 30 min, cerulenin 50 μM 4 h

Cc1sc2ncnc(NC3CCN(Cc4ccccc4)C3)c2c1C (stereo not shown) [Fasnall]
mTOR/LAMP2 colocalization (Manders' coefficient) ([1]; Fasnall 30', Replicate 2, individual cells (ED Fig. 8b)): 0.475 and 0.399 and 0.259 and 0.343 and 0.372 and 0.439 and 0.359 and 0.413 and 0.403 and 0.14 and 0.1 and 0.291 and 0.207 and 0.085 and 0.364 and 0.524 and 0.395 and 0.22 and 0.281 and 0.339 and 0.627 and 0.352 and 0.483 and 0.276 and 0.195 and 0.511 and 0.191
mTOR/LAMP2 colocalization (Manders' coefficient) ([1]; Fasnall 30', Replicate 4, individual cells (ED Fig. 8b)): 0.446 and 0.648 and 0.366 and 0.481 and 0.313 and 0.232 and 0.1 and 0.151 and 0.321 and 0.261 and 0.549 and 0.486 and 0.59 and 0.448 and 0.288 and 0.329 and 0.377 and 0.426 and 0.197 and 0.422 and 0.449 and 0.465 and 0.297 and 0.542 and 0.319 and 0.458 and 0.212 and 0.351 and 0.306
mTOR/LAMP2 colocalization (Manders' coefficient), Mean ([1]; Fasnall 30', mean of pooled individual cells (ED Fig. 8b), DMSO mean 0.568258): 0.3868
mTOR/LAMP2 colocalization (Manders' coefficient) ([1]; Fasnall 60', Replicate 2, individual cells (ED Fig. 8b)): 0.202 and 0.487 and 0.43 and 0.287 and 0.399 and 0.342 and 0.295 and 0.326 and 0.268 and 0.605 and 0.328 and 0.333 and 0.315 and 0.375 and 0.636 and 0.498 and 0.603 and 0.513 and 0.443
mTOR/LAMP2 colocalization (Manders' coefficient) ([1]; Fasnall 60', Replicate 4, individual cells (ED Fig. 8b)): 0.425 and 0.202 and 0.399 and 0.49 and 0.499 and 0.282 and 0.303 and 0.344 and 0.361 and 0.405 and 0.518 and 0.461 and 0.434 and 0.504 and 0.271 and 0.298 and 0.295 and 0.41 and 0.416 and 0.567 and 0.365 and 0.689 and 0.431 and 0.398 and 0.488
mTOR/LAMP2 colocalization (Manders' coefficient), Mean ([1]; Fasnall 60', mean of pooled individual cells (ED Fig. 8b), DMSO mean 0.568258): 0.4158
mTOR localization at lysosomes (co-localization with LAMP2) ([1]; HEK293FT, 25 μM Fasnall or 50 μM cerulenin): significant dissociation
mTOR/LAMP2 colocalization (Manders' coefficient), Mean ([1]; Luc-expressing cells, Fasnall 30' (ED Fig. 8j), Luc DMSO mean 0.429851): 0.3242
mTOR/LAMP2 colocalization (Manders' coefficient), Mean ([1]; RagA(QL)/C(SN)-expressing cells, Fasnall 30' (ED Fig. 8j), DMSO mean 0.528308): 0.4688
p-AMPK(T172)/AMPK, Mean ([2]; ED Fig. 5b): 4.063
p-ACC1(S79)/ACC1, Mean ([2]; ED Fig. 5c): 2.603
mTORC1 activity in U2OS [3]: downregulates
p-Grb10(S476)/Grb10, Mean ([4]; ED Fig. 3b, relative to DMSO): 0.4881
p-TFEB(S211)/TFEB, Mean ([4]; ED Fig. 3c, relative to DMSO): 0.3867
p-S6K(T389)/S6K, Mean ([4]; ED Fig. 4n, relative to DMSO): 0.2327
mTORC1 activity towards Grb10 and TFEB (cerulenin: also 4E-BP1) [4, 9]: downregulates
mTORC1 activity (phosphorylation of S6K, 4E-BP1, Grb10 and TFEB) ([4]; HEK293FT cells, Fasnall, cerulenin or siFASN): suppressed
p-S6K(T389)/S6K, Mean ([4]; HEK293FT expressing FLAG-ACC1 S79A, Fasnall 25 μM, 30 min, respective DMSO = 1, Fig. 4b): 0.3193
p-S6K(T389)/S6K, Mean ([4]; HEK293FT expressing FLAG-ACC1 WT, Fasnall 25 μM, 30 min, respective DMSO = 1, Fig. 4b): 0.6407
p-S6K(T389)/S6K, Mean ([4]; HEK293FT expressing FLAG-Luc, Fasnall 25 μM, 30 min, respective DMSO = 1, Fig. 4b): 0.6832
p-S6K(T389)/S6K, Mean ([4]; HEK293FT, 25 μM Fasnall 30', DMSO = 1, n = 6, Fig. 2g): 0.526
p-S6K(T389)/S6K, Mean ([4]; HEK293FT, 25 μM Fasnall 60', DMSO = 1, n = 6, Fig. 2g): 0.5445
p-S6K(T389)/S6K, Mean ([4]; Luc-expressing cells, Fasnall 30', DMSO = 1 (ED Fig. 8h)): 0.4328
p-S6K(T389)/S6K ([4]; Luc-expressing cells, Fasnall 30'): 0.4633 and 0.548 and 0.2872
p-S6K(T389)/S6K, Mean ([4]; Luc-expressing cells, Fasnall 60', DMSO = 1 (ED Fig. 8h)): 0.3861
p-S6K(T389)/S6K ([4]; Luc-expressing cells, Fasnall 60'): 0.4934 and 0.1817 and 0.4832
p-S6K(T389)/S6K, Mean ([4]; RagA(QL)/C(SN)-expressing cells, Fasnall 30', DMSO = 1 (ED Fig. 8h)): 0.4794
p-S6K(T389)/S6K ([4]; RagA(QL)/C(SN)-expressing cells, Fasnall 30'): 0.6415 and 0.4768 and 0.3198
p-S6K(T389)/S6K, Mean ([4]; RagA(QL)/C(SN)-expressing cells, Fasnall 60', DMSO = 1 (ED Fig. 8h)): 0.4741
p-S6K(T389)/S6K ([4]; RagA(QL)/C(SN)-expressing cells, Fasnall 60'): 0.6662 and 0.3714 and 0.3847
p-S6K(T389)/S6K, Mean ([4]; RagA/B KO HEK293FT, 25 μM Fasnall 30', respective DMSO = 1, n = 4, Fig. 5i): 0.306
p-S6K(T389)/S6K, Mean ([4]; RagA/B KO HEK293FT, 25 μM Fasnall 60', respective DMSO = 1, n = 4, Fig. 5i): 0.3694
p-S6K(T389)/S6K, Mean ([4]; TSC1 KO HEK293FT, 25 μM Fasnall 30 min, respective DMSO = 1, n = 6, Fig. 5n): 0.4771
p-S6K(T389)/S6K, Mean ([4]; WT HEK293FT, 25 μM Fasnall 30', respective DMSO = 1, n = 4, Fig. 5i): 0.3695
p-S6K(T389)/S6K, Mean ([4]; WT HEK293FT, 25 μM Fasnall 60', respective DMSO = 1, n = 4, Fig. 5i): 0.3619
p-S6K(T389)/S6K, Mean ([4]; WT HEK293FT, 25 μM Fasnall 30 min, respective DMSO = 1, n = 6, Fig. 5n): 0.3275
p-AKT(S473)/AKT, Mean ([5]; 25 μM Fasnall 30 min, DMSO = 1, n = 4, Fig. 3b): 1.017
phosphorylation of Akt (mTORC2 substrate) [5, 9]: did not significantly alter
p-S6K(T389)/S6K, Mean ([6]; ED Fig. 7b, AMPKa1/2 KO, 30', relative to AMPKa1/2 KO DMSO): 0.6838
p-S6K(T389)/S6K, Mean ([6]; ED Fig. 7b, AMPKa1/2 KO, 60', relative to AMPKa1/2 KO DMSO): 0.7858
p-S6K(T389)/S6K, Mean ([6]; ED Fig. 7b, WT, 30', relative to WT DMSO): 0.4433
p-S6K(T389)/S6K, Mean ([6]; ED Fig. 7b, WT, 60', relative to WT DMSO): 0.4902
p-S6K(T389)/S6K, Mean ([6]; ED Fig. 7g, DEPDC5+RagA/B KO, 30', relative to DEPDC5+RagA/B KO DMSO): 0.2954
p-S6K(T389)/S6K, Mean ([6]; ED Fig. 7g, DEPDC5+RagA/B KO, 60', relative to DEPDC5+RagA/B KO DMSO): 0.2391
p-S6K(T389)/S6K, Mean ([6]; ED Fig. 7g, WT, 30', relative to WT DMSO): 0.4545
p-S6K(T389)/S6K, Mean ([6]; ED Fig. 7g, WT, 60', relative to WT DMSO): 0.4895
p-S6K(T389)/S6K, Mean ([7]; ED Fig. 4b, relative to DMSO): 0.4247
mTORC1 activity in MEFs ([7]; Fasnall 25 μM 30 min, cerulenin 50 μM 2 or 4 h): downregulates
p-ERK(T202/Y204)/ERK, Mean [8]: 0.525

— PMC10495264 (Nature Cell Biology, 2023)
